Source: publication PMC4854315, “Discovery of a novel allosteric inhibitor-binding site in ERK5: comparison with the canonical kinase hinge ATP-binding site” (Acta Crystallographica. Section D, Structural Biology, 2016)

What was measured:
Test in all cases: Z'-LYTE kinase panel
Format in all cases: biochemical
PDGFRA (PDGFR alpha) = target: T1, PDGFRA (PDGFR alpha) (Homo sapiens, UniProt P16234)
T1 construct: purchased ThermoFisher (SelectScreen, Z'-LYTE)
Procedure, shortened: (§1)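 Single-point screen, 10 µM compound; % inhibition read by Z′-LYTE (FRET-based) format per standard protocol; 225-kinase panel.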

AKT1 (PKB alpha) = target: T2, AKT1 (PKB alpha) (Homo sapiens, UniProt P31749)
T2 construct: purchased ThermoFisher (SelectScreen, Z'-LYTE)
Procedure, shortened: as §1

PAK6 = target: T3, PAK6 (Homo sapiens, UniProt Q9NQU5)
T3 construct: purchased ThermoFisher (SelectScreen, Z'-LYTE)
Procedure, shortened: as §1

NEK6 = target: T4, NEK6 (Homo sapiens, UniProt Q9HC98)
T4 construct: purchased ThermoFisher (SelectScreen, Z'-LYTE)
Procedure, shortened: as §1

SNF1LK2 = target: T5, SNF1LK2 (Homo sapiens, UniProt Q9H0K1)
T5 construct: purchased ThermoFisher (SelectScreen, Z'-LYTE)
Procedure, shortened: as §1

NEK1 = target: T6, NEK1 (Homo sapiens, UniProt Q96PY6)
T6 construct: purchased ThermoFisher (SelectScreen, Z'-LYTE)
T6 sequence (Q96PY6 1-1258): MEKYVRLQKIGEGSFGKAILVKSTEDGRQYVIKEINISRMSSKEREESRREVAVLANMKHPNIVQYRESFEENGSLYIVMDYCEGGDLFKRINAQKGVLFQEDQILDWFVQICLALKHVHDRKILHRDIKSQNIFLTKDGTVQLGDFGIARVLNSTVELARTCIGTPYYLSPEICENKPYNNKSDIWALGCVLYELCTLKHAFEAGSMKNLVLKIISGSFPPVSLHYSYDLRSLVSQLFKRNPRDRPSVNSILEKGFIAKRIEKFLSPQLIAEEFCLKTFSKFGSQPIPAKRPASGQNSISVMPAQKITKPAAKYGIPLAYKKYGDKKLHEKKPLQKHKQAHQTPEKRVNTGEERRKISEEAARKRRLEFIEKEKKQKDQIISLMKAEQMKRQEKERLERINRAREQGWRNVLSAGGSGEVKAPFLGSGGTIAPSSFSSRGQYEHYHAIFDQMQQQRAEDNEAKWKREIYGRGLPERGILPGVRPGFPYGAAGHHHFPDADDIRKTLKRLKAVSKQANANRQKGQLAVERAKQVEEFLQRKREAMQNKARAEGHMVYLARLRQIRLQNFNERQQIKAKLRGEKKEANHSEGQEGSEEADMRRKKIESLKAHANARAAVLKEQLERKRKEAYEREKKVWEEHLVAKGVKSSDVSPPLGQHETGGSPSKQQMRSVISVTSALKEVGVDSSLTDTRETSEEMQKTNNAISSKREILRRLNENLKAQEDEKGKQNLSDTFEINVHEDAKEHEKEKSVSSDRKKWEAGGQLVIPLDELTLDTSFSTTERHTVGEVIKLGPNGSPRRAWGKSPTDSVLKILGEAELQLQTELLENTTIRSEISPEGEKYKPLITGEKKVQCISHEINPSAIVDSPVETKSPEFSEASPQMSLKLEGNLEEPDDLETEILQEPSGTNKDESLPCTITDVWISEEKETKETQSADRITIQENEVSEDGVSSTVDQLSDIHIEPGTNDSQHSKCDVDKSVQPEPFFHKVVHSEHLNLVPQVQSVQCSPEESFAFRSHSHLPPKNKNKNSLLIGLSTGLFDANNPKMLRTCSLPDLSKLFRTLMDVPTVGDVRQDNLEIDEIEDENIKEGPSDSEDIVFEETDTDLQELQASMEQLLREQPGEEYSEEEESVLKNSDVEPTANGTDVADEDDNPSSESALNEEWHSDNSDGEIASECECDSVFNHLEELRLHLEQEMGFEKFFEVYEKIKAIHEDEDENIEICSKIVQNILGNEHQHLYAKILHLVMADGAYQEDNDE
Procedure, shortened: as §1

PKN1 (PRK1) = target: T7, PKN1 (PRK1) (Homo sapiens, UniProt Q16512)
T7 construct: purchased ThermoFisher (SelectScreen, Z'-LYTE)
Procedure, shortened: as §1

SRC = target: T8, SRC (Homo sapiens, UniProt P12931)
T8 construct: purchased ThermoFisher (SelectScreen, Z'-LYTE)
Procedure, shortened: as §1

FRK (PTK5) = target: T9, FRK (PTK5) (Homo sapiens, UniProt P42685)
T9 construct: purchased ThermoFisher (SelectScreen, Z'-LYTE)
Procedure, shortened: as §1

FGR = target: T10, FGR (Homo sapiens, UniProt P09769)
T10 construct: purchased ThermoFisher (SelectScreen, Z'-LYTE)
Procedure, shortened: as §1

HCK = target: T11, HCK (Homo sapiens, UniProt P08631)
T11 construct: purchased ThermoFisher (SelectScreen, Z'-LYTE)
Procedure, shortened: as §1

MAPKAPK3 = target: T12, MAPKAPK3 (Homo sapiens, UniProt Q16644)
T12 construct: purchased ThermoFisher (SelectScreen, Z'-LYTE)
Procedure, shortened: as §1

SGK (SGK1) = target: T13, SGK (SGK1) (Homo sapiens, UniProt O00141)
T13 construct: purchased ThermoFisher (SelectScreen, Z'-LYTE)
T13 sequence (O00141 1-431): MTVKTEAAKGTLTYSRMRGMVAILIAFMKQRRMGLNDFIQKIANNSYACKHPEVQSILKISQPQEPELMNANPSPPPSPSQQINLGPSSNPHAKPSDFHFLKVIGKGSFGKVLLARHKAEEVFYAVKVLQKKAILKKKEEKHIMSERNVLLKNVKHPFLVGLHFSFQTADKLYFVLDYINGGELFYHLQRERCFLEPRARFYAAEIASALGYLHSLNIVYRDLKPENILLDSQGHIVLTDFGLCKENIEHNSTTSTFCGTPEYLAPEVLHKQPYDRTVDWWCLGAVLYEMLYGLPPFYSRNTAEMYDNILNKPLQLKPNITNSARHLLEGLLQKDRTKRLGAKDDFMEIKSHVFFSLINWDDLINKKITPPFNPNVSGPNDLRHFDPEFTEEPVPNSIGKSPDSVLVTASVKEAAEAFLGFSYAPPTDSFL
Procedure, shortened: as §1

FLT1 (VEGFR1) = target: T14, FLT1 (VEGFR1) (Homo sapiens, UniProt P17948)
T14 construct: purchased ThermoFisher (SelectScreen, Z'-LYTE)
Procedure, shortened: as §1

EPHA4 = target: T15, EPHA4 (Homo sapiens, UniProt P54764)
T15 construct: purchased ThermoFisher (SelectScreen, Z'-LYTE)
Procedure, shortened: as §1

AURKB (Aurora B) = target: T16, AURKB (Aurora B) (Homo sapiens, UniProt Q96GD4)
T16 construct: purchased ThermoFisher (SelectScreen, Z'-LYTE)
Procedure, shortened: as §1

T12 sequence (Q16644 whole entry): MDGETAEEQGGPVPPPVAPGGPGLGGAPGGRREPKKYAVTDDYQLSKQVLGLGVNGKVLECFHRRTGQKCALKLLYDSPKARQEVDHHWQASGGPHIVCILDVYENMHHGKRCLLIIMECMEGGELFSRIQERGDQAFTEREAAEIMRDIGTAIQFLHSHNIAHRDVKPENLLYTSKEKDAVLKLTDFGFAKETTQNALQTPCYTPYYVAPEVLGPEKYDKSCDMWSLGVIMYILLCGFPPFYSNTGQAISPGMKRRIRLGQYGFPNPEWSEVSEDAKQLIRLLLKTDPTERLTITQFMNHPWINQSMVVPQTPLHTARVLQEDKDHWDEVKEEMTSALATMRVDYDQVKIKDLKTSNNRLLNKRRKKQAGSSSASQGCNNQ
T3 sequence (Q9NQU5 whole entry): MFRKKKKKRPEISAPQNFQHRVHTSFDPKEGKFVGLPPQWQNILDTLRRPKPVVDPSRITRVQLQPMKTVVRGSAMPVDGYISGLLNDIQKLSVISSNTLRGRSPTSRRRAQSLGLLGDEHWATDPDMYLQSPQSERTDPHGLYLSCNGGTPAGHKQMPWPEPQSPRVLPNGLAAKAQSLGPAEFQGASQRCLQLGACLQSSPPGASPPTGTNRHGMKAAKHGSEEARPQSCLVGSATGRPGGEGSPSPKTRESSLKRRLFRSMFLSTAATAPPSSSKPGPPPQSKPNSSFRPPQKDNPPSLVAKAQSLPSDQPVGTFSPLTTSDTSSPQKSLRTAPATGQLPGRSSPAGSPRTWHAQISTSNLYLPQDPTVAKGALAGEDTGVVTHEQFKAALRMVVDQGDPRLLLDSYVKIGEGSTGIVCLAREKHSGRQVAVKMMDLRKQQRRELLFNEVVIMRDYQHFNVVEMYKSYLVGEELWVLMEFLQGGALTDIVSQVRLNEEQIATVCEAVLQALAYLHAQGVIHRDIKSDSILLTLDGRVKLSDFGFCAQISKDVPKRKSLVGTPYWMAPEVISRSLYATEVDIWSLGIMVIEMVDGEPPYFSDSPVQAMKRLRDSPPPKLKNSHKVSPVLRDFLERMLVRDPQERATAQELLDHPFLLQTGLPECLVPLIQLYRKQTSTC
T14 sequence (P17948 27-1338): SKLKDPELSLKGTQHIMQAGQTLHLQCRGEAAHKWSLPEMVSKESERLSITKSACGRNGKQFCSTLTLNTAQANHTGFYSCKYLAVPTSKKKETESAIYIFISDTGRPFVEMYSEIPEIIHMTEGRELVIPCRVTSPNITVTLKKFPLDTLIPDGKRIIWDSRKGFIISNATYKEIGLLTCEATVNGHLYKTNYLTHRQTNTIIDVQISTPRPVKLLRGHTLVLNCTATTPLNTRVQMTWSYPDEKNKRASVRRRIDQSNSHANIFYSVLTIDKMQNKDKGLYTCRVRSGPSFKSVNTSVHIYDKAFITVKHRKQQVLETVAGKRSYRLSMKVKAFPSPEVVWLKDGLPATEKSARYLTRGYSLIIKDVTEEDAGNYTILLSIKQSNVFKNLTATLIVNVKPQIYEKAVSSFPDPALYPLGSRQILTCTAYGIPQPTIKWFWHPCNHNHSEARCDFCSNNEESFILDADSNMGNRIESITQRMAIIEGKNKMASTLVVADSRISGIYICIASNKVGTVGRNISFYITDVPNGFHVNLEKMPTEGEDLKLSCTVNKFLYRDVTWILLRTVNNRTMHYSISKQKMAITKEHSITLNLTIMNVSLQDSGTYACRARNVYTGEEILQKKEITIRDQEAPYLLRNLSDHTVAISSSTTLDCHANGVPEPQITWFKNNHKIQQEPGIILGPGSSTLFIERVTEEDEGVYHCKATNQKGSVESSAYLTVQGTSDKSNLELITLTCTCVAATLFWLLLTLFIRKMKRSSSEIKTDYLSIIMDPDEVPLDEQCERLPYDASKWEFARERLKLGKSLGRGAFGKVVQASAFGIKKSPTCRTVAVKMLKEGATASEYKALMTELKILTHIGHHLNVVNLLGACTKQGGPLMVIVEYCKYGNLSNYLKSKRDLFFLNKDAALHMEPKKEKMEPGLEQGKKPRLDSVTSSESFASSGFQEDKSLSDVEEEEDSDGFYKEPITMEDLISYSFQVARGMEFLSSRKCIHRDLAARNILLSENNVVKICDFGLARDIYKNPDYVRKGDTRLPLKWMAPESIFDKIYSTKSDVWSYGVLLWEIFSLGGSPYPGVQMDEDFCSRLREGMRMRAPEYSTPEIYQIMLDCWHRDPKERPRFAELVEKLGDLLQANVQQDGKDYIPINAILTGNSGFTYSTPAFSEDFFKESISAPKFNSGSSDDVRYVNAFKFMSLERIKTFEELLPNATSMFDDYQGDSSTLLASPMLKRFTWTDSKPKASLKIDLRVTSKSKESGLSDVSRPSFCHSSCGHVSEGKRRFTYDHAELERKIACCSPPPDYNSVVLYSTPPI
T16 sequence (Q96GD4 whole entry): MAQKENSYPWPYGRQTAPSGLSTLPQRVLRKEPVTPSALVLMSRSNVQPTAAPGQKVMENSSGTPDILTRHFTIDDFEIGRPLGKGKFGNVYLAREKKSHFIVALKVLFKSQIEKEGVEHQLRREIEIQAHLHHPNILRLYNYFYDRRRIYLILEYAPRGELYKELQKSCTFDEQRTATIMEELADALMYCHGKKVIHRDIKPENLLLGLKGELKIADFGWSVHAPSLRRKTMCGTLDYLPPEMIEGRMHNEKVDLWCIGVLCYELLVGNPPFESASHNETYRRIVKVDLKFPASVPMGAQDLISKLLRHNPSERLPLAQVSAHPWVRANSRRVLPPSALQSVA
T4 sequence (Q9HC98 whole entry): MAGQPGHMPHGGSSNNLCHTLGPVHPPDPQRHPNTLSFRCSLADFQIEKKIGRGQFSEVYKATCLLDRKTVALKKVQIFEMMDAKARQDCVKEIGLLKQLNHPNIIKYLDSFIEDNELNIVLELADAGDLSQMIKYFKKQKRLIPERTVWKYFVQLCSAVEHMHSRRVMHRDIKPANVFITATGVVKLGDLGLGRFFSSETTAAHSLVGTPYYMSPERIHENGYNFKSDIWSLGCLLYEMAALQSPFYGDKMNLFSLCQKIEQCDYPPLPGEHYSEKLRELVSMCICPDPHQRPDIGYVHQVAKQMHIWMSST
T15 sequence (P54764 20-986): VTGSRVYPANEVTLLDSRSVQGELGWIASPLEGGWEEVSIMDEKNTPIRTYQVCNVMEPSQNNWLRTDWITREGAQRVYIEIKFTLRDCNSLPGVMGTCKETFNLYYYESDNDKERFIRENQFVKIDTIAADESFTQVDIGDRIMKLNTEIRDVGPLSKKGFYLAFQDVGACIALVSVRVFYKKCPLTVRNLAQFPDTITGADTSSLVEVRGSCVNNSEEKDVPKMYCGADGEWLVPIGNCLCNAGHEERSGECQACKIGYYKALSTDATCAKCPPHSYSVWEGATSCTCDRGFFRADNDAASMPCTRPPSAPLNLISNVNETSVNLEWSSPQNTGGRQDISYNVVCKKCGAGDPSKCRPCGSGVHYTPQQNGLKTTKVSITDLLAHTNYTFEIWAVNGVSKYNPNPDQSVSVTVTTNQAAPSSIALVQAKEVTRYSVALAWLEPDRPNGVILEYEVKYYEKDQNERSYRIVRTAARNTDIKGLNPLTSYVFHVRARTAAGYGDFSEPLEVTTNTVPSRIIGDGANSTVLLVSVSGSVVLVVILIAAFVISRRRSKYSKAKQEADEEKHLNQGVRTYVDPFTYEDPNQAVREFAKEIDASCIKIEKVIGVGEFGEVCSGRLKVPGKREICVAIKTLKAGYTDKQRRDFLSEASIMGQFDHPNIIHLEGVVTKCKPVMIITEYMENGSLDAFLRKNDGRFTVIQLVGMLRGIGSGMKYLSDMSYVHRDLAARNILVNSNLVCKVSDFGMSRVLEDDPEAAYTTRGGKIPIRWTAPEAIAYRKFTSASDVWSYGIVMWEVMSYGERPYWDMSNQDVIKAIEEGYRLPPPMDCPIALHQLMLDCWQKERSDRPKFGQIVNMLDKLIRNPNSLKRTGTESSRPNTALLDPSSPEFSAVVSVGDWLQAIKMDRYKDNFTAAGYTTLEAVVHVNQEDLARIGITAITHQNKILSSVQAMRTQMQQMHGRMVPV
T2 sequence (P31749 whole entry): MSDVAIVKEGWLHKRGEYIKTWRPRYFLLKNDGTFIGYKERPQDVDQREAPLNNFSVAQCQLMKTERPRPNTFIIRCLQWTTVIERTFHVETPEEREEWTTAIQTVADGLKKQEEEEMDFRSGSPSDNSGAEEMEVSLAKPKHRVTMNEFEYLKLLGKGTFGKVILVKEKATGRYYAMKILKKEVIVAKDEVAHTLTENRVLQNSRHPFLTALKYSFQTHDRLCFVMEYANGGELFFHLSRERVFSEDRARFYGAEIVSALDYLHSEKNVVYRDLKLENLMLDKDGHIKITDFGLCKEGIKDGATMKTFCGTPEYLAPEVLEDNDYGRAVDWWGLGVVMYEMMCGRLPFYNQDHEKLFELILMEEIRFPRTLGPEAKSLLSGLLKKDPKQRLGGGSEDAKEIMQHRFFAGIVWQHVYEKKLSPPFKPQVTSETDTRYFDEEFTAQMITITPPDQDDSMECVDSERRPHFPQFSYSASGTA
T11 sequence (P08631 whole entry): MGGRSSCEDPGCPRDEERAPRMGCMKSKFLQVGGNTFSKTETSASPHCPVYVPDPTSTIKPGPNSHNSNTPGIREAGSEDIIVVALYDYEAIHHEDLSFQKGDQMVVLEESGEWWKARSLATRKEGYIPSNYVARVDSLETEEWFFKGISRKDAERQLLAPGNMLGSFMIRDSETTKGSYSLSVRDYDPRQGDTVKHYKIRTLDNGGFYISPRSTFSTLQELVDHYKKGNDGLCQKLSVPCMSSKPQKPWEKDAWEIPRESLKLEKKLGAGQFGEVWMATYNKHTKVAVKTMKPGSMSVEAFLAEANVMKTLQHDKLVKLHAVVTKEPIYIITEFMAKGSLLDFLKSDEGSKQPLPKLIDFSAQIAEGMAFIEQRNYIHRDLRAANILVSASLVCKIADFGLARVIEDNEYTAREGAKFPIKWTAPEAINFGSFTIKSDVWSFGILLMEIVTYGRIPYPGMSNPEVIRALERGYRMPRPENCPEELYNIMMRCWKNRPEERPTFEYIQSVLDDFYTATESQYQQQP

Molecule	inhibition at 10 µM (PDGFRA (PDGFR alpha)) [%]	inhibition at 10 µM (AKT1 (PKB alpha)) [%]	inhibition at 10 µM (PAK6) [%]	inhibition at 10 µM (NEK6) [%]	inhibition at 10 µM (SNF1LK2) [%]	inhibition at 10 µM (NEK1) [%]	inhibition at 10 µM (PKN1 (PRK1)) [%]	inhibition at 10 µM (SRC) [%]	inhibition at 10 µM (FRK (PTK5)) [%]	inhibition at 10 µM (FGR) [%]	inhibition at 10 µM (HCK) [%]	inhibition at 10 µM (MAPKAPK3) [%]	inhibition at 10 µM (SGK (SGK1)) [%]	inhibition at 10 µM (FLT1 (VEGFR1)) [%]	inhibition at 10 µM (EPHA4) [%]	inhibition at 10 µM (AURKB (Aurora B)) [%]	further results
Cc1ncc(-c2nc(Nc3ccc(C(=O)NCCN4CCCCC4)cc3)ncc2F)n1C(C)C [Compound 3]	62	19	27	12	88	6.39	62	79	68	90	48	18	91	73	55	88	
Cc1cc(Nc2nc(N)nn2C(=O)NC(C)C)ccc1Cl [Compound 5]	22	0.31	14	3	74	21	-3.54	26	21	54	16	-5	9	34	10	68	
XMD8-92 [Compound 2, reference compound]																	PDGFRA (PDGFR alpha) % Inhibition (PDGFRA (PDGFR alpha); 10 µM compound, ATP Km app): 8%; AKT1 (PKB alpha) % Inhibition (AKT1 (PKB alpha); 10 µM compound, ATP Km app): 41%; PAK6 % Inhibition (PAK6; 10 µM compound, ATP Km app): 33%; NEK6 % Inhibition (NEK6; 10 µM compound, ATP Km app): 68%; SNF1LK2 % Inhibition (SNF1LK2; 10 µM compound, ATP Km app): 62%; NEK1 % Inhibition (NEK1; 10 µM compound, ATP Km app): -9%; PKN1 (PRK1) % Inhibition (PKN1 (PRK1); 10 µM compound, ATP Km app): 1.26%; SRC % Inhibition (SRC; 10 µM compound, ATP Km app): 11%; FRK (PTK5) % Inhibition (FRK (PTK5); 10 µM compound, ATP Km app): 20%; FGR % Inhibition (FGR; 10 µM compound, ATP Km app): 83%; HCK % Inhibition (HCK; 10 µM compound, ATP Km app): 14%; MAPKAPK3 % Inhibition (MAPKAPK3; 10 µM compound, ATP Km app): 96%; SGK (SGK1) % Inhibition (SGK (SGK1); 10 µM compound, ATP Km app): 66%; FLT1 (VEGFR1) % Inhibition (FLT1 (VEGFR1); 10 µM compound, ATP Km app): -1.58%; EPHA4 % Inhibition (EPHA4; 10 µM compound, ATP Km app): 19%; AURKB (Aurora B) % Inhibition (AURKB (Aurora B); 10 µM compound, ATP Km app): 39%
